Among the data in ChEMBL document CHEMBL5291721, “A preclinical secondary pharmacology resource illuminates target-adverse drug reaction associations of marketed drugs” (Nat Commun, 2023) are AC50 values, retold here.

SMILES strings stand for the structures.

The target in one assay is D(1A) dopamine receptor (Homo sapiens, UniProt P21728). Format: functional, cell-based.
In another assay the target is T1, Glucocorticoid receptor (Homo sapiens, UniProt P04150).
T1 sequence (P04150 whole entry): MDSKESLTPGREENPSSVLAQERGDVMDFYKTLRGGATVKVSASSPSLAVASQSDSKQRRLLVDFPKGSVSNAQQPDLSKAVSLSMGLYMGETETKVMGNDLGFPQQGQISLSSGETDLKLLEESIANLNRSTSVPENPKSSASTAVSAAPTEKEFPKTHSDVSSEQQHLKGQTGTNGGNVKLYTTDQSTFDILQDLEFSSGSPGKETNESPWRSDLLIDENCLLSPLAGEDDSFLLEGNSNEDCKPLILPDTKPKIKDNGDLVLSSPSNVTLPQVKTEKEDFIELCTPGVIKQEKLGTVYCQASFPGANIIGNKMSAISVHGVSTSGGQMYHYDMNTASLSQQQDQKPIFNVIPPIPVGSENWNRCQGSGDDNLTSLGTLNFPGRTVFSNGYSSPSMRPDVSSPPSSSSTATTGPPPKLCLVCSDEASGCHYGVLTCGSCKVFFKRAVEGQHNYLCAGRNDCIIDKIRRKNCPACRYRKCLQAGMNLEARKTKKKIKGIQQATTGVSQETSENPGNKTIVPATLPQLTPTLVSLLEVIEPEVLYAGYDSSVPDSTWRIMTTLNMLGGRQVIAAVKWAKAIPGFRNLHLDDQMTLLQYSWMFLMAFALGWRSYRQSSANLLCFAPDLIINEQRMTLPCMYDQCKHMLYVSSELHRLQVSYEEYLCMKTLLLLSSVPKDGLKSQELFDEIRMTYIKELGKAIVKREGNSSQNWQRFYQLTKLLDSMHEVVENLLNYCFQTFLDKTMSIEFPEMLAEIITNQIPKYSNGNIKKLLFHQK

In assay [1] the target is T2, 5-hydroxytryptamine receptor 2B (Homo sapiens, UniProt P41595). The assay is classed as functional, cell-based.
T2 sequence (P41595 whole entry): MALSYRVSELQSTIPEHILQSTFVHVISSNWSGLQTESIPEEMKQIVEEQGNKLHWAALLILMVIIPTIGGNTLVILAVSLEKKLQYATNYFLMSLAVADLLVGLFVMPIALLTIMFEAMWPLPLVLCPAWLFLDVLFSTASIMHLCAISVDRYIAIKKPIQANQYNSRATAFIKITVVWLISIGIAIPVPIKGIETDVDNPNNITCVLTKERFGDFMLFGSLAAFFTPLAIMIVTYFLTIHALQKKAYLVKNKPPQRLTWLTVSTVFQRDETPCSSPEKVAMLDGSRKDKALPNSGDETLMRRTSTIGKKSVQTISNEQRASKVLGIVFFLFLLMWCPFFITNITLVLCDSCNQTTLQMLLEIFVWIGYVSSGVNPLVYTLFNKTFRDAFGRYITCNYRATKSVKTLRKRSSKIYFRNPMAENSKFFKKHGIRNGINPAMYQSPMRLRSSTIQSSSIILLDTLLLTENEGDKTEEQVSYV
The target of a further assay is T3, Adenosine receptor A3 (Homo sapiens, UniProt P0DMS8).
T3 sequence (P0DMS8 whole entry): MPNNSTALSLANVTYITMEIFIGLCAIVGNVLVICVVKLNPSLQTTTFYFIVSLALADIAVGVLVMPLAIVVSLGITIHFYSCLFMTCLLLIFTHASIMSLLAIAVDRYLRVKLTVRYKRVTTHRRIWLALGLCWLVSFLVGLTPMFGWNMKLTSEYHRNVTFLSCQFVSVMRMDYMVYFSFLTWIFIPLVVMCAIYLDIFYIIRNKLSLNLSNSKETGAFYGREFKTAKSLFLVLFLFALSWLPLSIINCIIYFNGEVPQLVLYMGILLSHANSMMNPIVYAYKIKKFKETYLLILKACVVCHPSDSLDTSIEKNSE

The target in assay [2] is T2, 5-hydroxytryptamine receptor 2B. The assay is classed as functional, cell-based. This is another data set of the same source.
Assay [3] deals with T4, Amine oxidase [flavin-containing] A (Homo sapiens, UniProt P21397).
T4 sequence (P21397 whole entry): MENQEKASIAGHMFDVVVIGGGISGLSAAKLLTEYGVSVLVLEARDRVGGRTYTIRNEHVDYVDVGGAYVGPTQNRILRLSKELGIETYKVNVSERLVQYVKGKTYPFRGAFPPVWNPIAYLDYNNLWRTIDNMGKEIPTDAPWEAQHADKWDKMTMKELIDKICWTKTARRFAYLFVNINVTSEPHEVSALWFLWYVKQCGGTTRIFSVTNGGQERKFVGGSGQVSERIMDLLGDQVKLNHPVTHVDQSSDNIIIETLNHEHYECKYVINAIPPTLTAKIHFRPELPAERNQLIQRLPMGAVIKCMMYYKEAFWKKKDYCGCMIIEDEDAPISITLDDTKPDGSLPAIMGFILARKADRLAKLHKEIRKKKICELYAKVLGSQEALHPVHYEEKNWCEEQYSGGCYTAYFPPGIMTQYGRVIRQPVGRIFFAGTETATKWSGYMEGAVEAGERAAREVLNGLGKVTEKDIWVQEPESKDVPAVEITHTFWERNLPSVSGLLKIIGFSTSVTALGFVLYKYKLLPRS
The assay is classed as functional.

Assay [4] addresses T5, Cannabinoid receptor 1 (Homo sapiens, UniProt P21554). The assay is classed as functional, cell-based.
The target in assay [5] is T6, Muscarinic acetylcholine receptor M2 (Homo sapiens, UniProt P08172).
T6 sequence (P08172 whole entry): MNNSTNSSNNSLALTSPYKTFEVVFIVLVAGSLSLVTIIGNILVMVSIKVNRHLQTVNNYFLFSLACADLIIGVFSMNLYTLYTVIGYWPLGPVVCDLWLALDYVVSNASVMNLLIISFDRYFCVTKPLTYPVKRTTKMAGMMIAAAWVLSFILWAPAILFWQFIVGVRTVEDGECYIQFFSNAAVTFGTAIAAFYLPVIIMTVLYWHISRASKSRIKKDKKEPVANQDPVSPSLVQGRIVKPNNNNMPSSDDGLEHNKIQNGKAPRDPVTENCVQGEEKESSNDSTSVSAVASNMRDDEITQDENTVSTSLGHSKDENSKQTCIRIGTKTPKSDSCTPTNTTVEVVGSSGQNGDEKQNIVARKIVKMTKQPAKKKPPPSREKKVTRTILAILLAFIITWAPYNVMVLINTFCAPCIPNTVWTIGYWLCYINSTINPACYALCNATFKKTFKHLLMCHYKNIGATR
The assay is classed as functional, cell-based.

The target of assay [6] is T5, Cannabinoid receptor 1. The assay is classed as functional, cell-based. This is another data set of the same source.
The target of assay [7] is Sodium-dependent dopamine transporter (Homo sapiens, UniProt Q01959).
Sequence of Sodium-dependent dopamine transporter (Q01959 whole entry): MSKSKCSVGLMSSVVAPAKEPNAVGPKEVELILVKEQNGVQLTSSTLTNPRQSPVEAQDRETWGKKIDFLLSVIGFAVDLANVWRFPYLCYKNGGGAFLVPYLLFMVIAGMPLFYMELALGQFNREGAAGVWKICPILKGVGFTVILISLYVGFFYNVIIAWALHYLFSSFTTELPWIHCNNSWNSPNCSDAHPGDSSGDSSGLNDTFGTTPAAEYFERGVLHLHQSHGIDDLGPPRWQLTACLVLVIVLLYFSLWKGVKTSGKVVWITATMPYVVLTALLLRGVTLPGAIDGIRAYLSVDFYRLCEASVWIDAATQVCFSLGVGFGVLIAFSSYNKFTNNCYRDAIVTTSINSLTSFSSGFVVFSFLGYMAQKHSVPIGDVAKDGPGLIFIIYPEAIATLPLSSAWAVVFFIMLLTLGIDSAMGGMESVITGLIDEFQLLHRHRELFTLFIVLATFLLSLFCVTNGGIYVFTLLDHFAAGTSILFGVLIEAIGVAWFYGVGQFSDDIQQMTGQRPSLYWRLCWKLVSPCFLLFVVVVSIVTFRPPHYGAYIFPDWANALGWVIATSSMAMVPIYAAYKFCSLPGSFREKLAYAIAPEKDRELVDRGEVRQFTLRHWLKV
A further assay addresses T7, B2 bradykinin receptor (Homo sapiens, UniProt P30411).
T7 sequence (P30411 whole entry): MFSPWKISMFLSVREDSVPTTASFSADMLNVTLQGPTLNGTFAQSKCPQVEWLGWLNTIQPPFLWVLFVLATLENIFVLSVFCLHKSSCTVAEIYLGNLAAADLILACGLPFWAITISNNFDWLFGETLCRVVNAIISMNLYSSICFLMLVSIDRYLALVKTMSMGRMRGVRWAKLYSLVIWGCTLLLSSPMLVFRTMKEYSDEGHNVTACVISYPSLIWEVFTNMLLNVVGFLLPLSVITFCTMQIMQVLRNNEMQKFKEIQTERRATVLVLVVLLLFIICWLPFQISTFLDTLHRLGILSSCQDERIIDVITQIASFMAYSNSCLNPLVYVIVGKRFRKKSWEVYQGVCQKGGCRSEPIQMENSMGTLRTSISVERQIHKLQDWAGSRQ
Also: assay procedure not described here.

T5 sequence (P21554 whole entry): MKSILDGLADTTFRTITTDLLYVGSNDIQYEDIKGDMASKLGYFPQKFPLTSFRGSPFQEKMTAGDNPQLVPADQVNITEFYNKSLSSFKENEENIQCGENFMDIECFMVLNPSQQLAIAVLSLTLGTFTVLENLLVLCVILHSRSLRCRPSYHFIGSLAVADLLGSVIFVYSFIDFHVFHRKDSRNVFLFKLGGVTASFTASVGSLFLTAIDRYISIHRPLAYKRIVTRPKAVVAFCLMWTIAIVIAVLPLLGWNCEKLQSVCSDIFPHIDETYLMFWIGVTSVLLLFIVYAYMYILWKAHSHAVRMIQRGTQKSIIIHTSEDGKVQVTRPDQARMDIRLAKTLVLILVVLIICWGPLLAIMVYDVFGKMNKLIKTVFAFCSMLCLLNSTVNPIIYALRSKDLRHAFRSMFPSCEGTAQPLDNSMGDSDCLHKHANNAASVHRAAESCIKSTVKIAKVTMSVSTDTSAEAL
Sequence of D(1A) dopamine receptor (P21728 whole entry): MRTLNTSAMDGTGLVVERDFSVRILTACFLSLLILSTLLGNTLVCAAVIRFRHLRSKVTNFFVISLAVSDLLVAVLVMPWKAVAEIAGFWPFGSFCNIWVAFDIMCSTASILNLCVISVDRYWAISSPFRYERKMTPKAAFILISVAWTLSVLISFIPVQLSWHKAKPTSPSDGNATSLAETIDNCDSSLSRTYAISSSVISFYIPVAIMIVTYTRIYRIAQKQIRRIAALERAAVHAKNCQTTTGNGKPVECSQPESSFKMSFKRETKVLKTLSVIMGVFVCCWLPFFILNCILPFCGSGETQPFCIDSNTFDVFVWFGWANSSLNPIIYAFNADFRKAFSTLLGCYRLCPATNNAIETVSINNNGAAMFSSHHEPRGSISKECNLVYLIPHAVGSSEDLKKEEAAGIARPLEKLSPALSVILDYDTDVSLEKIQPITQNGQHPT

By AC50 is commonly meant the concentration giving half of the maximal activity seen. Read a low AC50 as activity at low concentration. As for `CCCN(CC)C(CC)C(=O)Nc1c(C)cccc1C` (stereo unspecified) [ETIDOCAINE], the AC50 (at D(1A) dopamine receptor; on Glucocorticoid receptor; in [1]; on Adenosine receptor A3; in [2]; in assay [3]) was above 30 µM in each case. The AC50 (at Cannabinoid receptor 1 [4]; in assay [5]; on Cannabinoid receptor 1 [6]; in [7]; on B2 bradykinin receptor) was above 30 µM each time.
Turning to `CC(=O)OCC(CCn1cnc2cnc(N)nc21)COC(C)=O` [FAMCICLOVIR], the AC50 on D(1A) dopamine receptor is above 10 µM; on Glucocorticoid receptor, above 30 µM; in assay [1], above 10 µM; at Adenosine receptor A3, above 30 µM; in assay [2], above 10 µM; in [3], above 10 µM. Moreover, the AC50 on Cannabinoid receptor 1 [4] was above 30 µM; in [5], above 10 µM; on Cannabinoid receptor 1 [6], above 30 µM; in [7] it was above 10 µM; on B2 bradykinin receptor it was above 30 µM.
Regarding `O=C(O)c1ccccc1Nc1cccc(C(F)(F)F)c1` [FLUFENAMIC ACID], the AC50 on D(1A) dopamine receptor was above 10 µM; on Glucocorticoid receptor, above 30 µM; in assay [1] it was above 30 µM; on Adenosine receptor A3 it was 26.3 µM; in assay [2], above 30 µM; in assay [3] it was above 10 µM. The AC50 at Cannabinoid receptor 1 [4] is above 30 µM; in [5] it was above 10 µM; at Cannabinoid receptor 1 [6], above 30 µM; in assay [7], above 30 µM; at B2 bradykinin receptor, above 30 µM.
With `O=C(O)c1ccccc1OP(=O)(O)O` [FOSFOSAL], the AC50 (on D(1A) dopamine receptor; at Glucocorticoid receptor; in assay [1]; on Adenosine receptor A3; in assay [2]; in assay [3]) was above 30 µM each time. The AC50 (at Cannabinoid receptor 1 [4]; in assay [5]; at Cannabinoid receptor 1 [6]; in [7]; on B2 bradykinin receptor) was above 30 µM in each case.
As to `Nc1ccn([C@@H]2O[C@H](CO)[C@@H](O)C2(F)F)c(=O)n1` [GEMCITABINE], the AC50 is above 10 µM on D(1A) dopamine receptor; above 30 µM at Glucocorticoid receptor; above 10 µM in assay [1]; above 30 µM at Adenosine receptor A3; above 10 µM in assay [2]; above 10 µM in [3]. The AC50 on Cannabinoid receptor 1 [4] was above 30 µM; in assay [5], above 10 µM; on Cannabinoid receptor 1 [6], above 30 µM; in assay [7] it was above 30 µM; on B2 bradykinin receptor, above 30 µM.
Take `C#C[C@]1(O)CC[C@H]2[C@@H]3CCC4=CC(=O)CCC4=C3C=C[C@@]21CC` [GESTRINONE]: the AC50 at D(1A) dopamine receptor was above 30 µM; on Glucocorticoid receptor, 0.01 µM; in assay [1], 24 µM; on Adenosine receptor A3 it was 22 µM; in assay [2], above 30 µM; in [3] it was above 30 µM. The AC50 was above 30 µM at Cannabinoid receptor 1 [4]; above 30 µM in [5]; above 30 µM at Cannabinoid receptor 1 [6]; 25 µM in assay [7]; above 30 µM on B2 bradykinin receptor.
As to `CCCCCCOC(=O)CCC(=O)CN` [HEXAMINOLEVULINATE], the AC50 (at D(1A) dopamine receptor; on Glucocorticoid receptor; in assay [1]; on Adenosine receptor A3; in assay [2]; in assay [3]) was above 30 µM each time. In addition, the concentration at half-maximal activity (AC50) (at Cannabinoid receptor 1 [4]; in assay [5]; at Cannabinoid receptor 1 [6]; in [7]; at B2 bradykinin receptor) was above 30 µM throughout.
Regarding `COC1=C(OC)C(=O)C(CCCCCCCCCCO)=C(C)C1=O` [IDEBENONE], the AC50 on D(1A) dopamine receptor is above 30 µM; at Glucocorticoid receptor, above 30 µM; in assay [1], above 10 µM; on Adenosine receptor A3 it was above 30 µM; in [2], above 10 µM; in [3] it was 8.5 µM. In addition, the AC50 at Cannabinoid receptor 1 [4] is above 30 µM; in assay [5], above 10 µM; at Cannabinoid receptor 1 [6], above 30 µM; in assay [7] it was above 10 µM; on B2 bradykinin receptor it was above 30 µM.
Turning to `Nc1nc2c(c(=O)[nH]1)N(C=O)C(CNc1ccc(C(=O)N[C@@H](CCC(=O)O)C(=O)O)cc1)CN2` (stereo partly specified) [LEUCOVORIN], the AC50 (at D(1A) dopamine receptor; on Glucocorticoid receptor; in [1]; on Adenosine receptor A3; in assay [2]; in [3]) was above 30 µM throughout. Moreover, the AC50 (at Cannabinoid receptor 1 [4]; in [5]; at Cannabinoid receptor 1 [6]; in assay [7]; on B2 bradykinin receptor) was above 30 µM each time.
As for `CCCC[C@H](C)C[C@H](O)/C=C/[C@H]1[C@H](O)CC(=O)[C@@H]1CCCC/C=C/C(=O)O` [LIMAPROST], the AC50 (on D(1A) dopamine receptor; at Glucocorticoid receptor; in [1]; on Adenosine receptor A3; in [2]; in [3]) was above 30 µM in each case. The AC50 (at Cannabinoid receptor 1 [4]; in [5]; on Cannabinoid receptor 1 [6]; in [7]; on B2 bradykinin receptor) was above 30 µM in each case.
For `Cc1ccc(NC(=O)C2(c3ccc4c(c3)OC(F)(F)O4)CC2)nc1-c1cccc(C(=O)O)c1` [LUMACAFTOR], the AC50 was above 30 µM at D(1A) dopamine receptor; above 30 µM at Glucocorticoid receptor; above 30 µM in assay [1]; 15 µM on Adenosine receptor A3; above 30 µM in [2]; above 30 µM in assay [3]. Also, the AC50 (on Cannabinoid receptor 1 [4]; in assay [5]; at Cannabinoid receptor 1 [6]; in [7]; on B2 bradykinin receptor) was above 30 µM each time.
